Data taken from PubChem BioAssay AID1033 (Sanford-Burnham Center for Chemical Genomics, 2008).
Calls of active or inactive are those of the source. How the calls were made is not given here.

What follows are molecules tested against Chaperone protein DnaK (Escherichia coli (strain K12)) (UniProt P0A6Y8) (assay: binders of DnaK substrate-binding domain, biophysical, NMR, chaperone (AID 1033)). Conditions: Purified DnaK SBD, NMR ligand binding.
Sequence of Chaperone protein DnaK (Escherichia coli (strain K12)) (P0A6Y8 whole entry, looked up, the tested form may be a part): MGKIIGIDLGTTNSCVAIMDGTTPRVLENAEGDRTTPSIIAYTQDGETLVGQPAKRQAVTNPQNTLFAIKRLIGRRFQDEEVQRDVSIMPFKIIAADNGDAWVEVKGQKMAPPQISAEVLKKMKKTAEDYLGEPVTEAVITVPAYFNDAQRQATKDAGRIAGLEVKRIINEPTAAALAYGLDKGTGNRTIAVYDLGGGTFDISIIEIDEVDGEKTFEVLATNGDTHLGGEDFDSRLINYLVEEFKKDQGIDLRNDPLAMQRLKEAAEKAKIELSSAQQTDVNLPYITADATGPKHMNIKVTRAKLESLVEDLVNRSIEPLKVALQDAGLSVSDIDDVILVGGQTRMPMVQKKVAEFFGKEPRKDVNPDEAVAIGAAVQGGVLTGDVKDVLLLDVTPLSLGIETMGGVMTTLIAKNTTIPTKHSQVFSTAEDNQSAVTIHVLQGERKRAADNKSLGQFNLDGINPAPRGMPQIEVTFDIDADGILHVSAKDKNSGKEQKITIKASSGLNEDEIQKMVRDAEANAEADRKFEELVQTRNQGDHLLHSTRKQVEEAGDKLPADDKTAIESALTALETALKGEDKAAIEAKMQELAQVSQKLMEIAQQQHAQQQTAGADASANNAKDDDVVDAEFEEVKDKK

Q: With `O=c1cnnc(N2CCCCC2)[nH]1` as the molecule, how does the Kd read?
A: Its Kd is > 4 mM (inactive).

Q: `Cc1c(N=Cc2ccco2)c(=O)n(-c2ccccc2)n1C` was tested. Which Kd did it give?
A: The Kd was > 4 mM (inactive).

Q: How did the Kd turn out when `O=C(NCc1ccc2c(c1)OCO2)c1cccs1` was run?
A: The Kd was > 4 mM (inactive).

Q: How did the Kd turn out when `Cc1nn2c(nc1=O)SCC2(O)c1ccccc1` (centres undefined) was run?
A: Its Kd is > 4 mM (inactive).

Q: Which Kd does the source give for `CNC(=S)Nc1ccc(OC)cc1C` here?
A: The Kd was > 4 mM (inactive).

Q: With `O=C1CS/C(=N/N=C/c2cccs2)N1` as the molecule, how does the Kd read?
A: Its Kd is > 4 mM (inactive).

Q: How did the Kd turn out when `OC12C=CC(CC1)CC2` was run?
A: Its Kd is > 4 mM (inactive).

Q: With `S=c1nc(Cc2ccccc2)[nH][nH]1` as the molecule, how does the Kd read?
A: Its Kd is > 4 mM (inactive).

Q: With `Cc1nc2ccccc2c(=O)n1CCCn1ccnc1` as the molecule, how does the Kd read?
A: Its Kd is > 4 mM (inactive).

Q: With `CSc1ccccc1C(=O)N1CCOCC1` as the molecule, how does the Kd read?
A: The Kd was > 4 mM (inactive).

Q: Which Kd does the source give for `O=c1cccc2n1CC1CC2CN2CCCC[C@@H]12` (some centres undefined) here?
A: Its Kd is > 4 mM (inactive).

Q: How did the Kd turn out when `CN1C(=O)c2ccc(C(=O)NCc3ccccc3)cc2C1=O` was run?
A: The Kd was > 4 mM (inactive).

Q: For `COC(=O)C[C@H]1C(C)(C)C(OC(C)=O)[C@]2(O)C=C3C(CC[C@]4(C)C3CC(=O)O[C@H]4c3ccoc3)C1(C)C2=O` (some centres undefined), which Kd is on record?
A: The Kd was > 4 mM (inactive).

Q: How did the Kd turn out when `COc1ccc(N2CC(=O)NC2=O)cc1` was run?
A: The Kd was > 4 mM (inactive).

Q: For `Cc1cc(NC(=O)c2c(F)c(F)c(F)c(F)c2F)no1`, which Kd is on record?
A: The Kd was > 4 mM (inactive).

Q: How did the Kd turn out when `CN1CCN(c2nc3c(c(=O)[nH]2)CCCC3)CC1` was run?
A: Its Kd is > 4 mM (inactive).

Q: Which Kd does the source give for `C=C(C)[C@@H]1[C@H]2OC(=O)[C@@H]1[C@]1(O)C[C@H]3O[C@]34C(=O)O[C@H]2[C@]14C` here?
A: Its Kd is > 4 mM (inactive).

Q: For `Cc1cc(/C=N/O)nc(=O)[nH]1`, which Kd is on record?
A: Its Kd is > 4 mM (inactive).

Q: Which Kd does the source give for `Cc1cc(C)nc(/N=C(/N)N2CCC(C(N)=O)CC2)n1` here?
A: The Kd was > 4 mM (inactive).

Q: Which Kd does the source give for `O=C1NC(=S)N/C1=C\c1ccccc1` here?
A: Its Kd is > 4 mM (inactive).

Q: With `Cc1ccc(=O)[nH]c1` as the molecule, how does the Kd read?
A: The Kd was > 4 mM (inactive).

Q: `OC1CC2CCC1C2` (centres undefined) was tested. Which Kd did it give?
A: Its Kd is > 4 mM (inactive).

Q: `CC(=O)OCC(OC(C)=O)C(OC(C)=O)C(OC(C)=O)C(OC(C)=O)C(COC(C)=O)OC(C)=O` (centres undefined) was tested. Which Kd did it give?
A: The Kd was > 4 mM (inactive).

Q: With `Cc1csc2nc3ccccc3c(=O)n12` as the molecule, how does the Kd read?
A: Its Kd is > 4 mM (inactive).

Q: `O=S(=O)(Nc1ccc2c(c1)OCCO2)c1cccs1` was tested. Which Kd did it give?
A: Its Kd is > 4 mM (inactive).

Q: For `Cc1ccc(C)n1-c1ccc(C(=O)N2CCOCC2)cc1`, which Kd is on record?
A: Its Kd is > 4 mM (inactive).

Q: How did the Kd turn out when `O=C1NC(=Nc2ccccc2)S/C1=C/c1cccnc1` was run?
A: The Kd was > 4 mM (inactive).

Q: For `CC(=O)Nc1ccc(S(N)(=O)=O)cc1`, which Kd is on record?
A: The Kd was > 4 mM (inactive).

Q: Which Kd does the source give for `CCOC(=O)c1c(-c2ccncc2)csc1N` here?
A: The Kd was > 4 mM (inactive).

Q: Which Kd does the source give for `NC(=O)c1ccc(-c2csnn2)cc1` here?
A: The Kd was > 4 mM (inactive).

Q: How did the Kd turn out when `COc1ccccc1NS(=O)(=O)c1c[nH]c(=O)[nH]c1=O` was run?
A: Its Kd is > 4 mM (inactive).

Q: With `CC1=[N+]([O-])C2(N)CCc3c(no[n+]3[O-])C2(O)C1` (centres undefined) as the molecule, how does the Kd read?
A: The Kd was > 4 mM (inactive).

Q: For `O=C1CC2OCC=C3CN4CC[C@]56c7ccccc7N1C5[C@H]2[C@H]3CC46` (some centres undefined), which Kd is on record?
A: Its Kd is > 4 mM (inactive).

Q: `CC1(C)CC2(C)N(N)C(=O)CN2C(=S)N1` (centres undefined) was tested. Which Kd did it give?
A: The Kd was > 4 mM (inactive).

Q: `S=C(NCc1ccco1)NN1CCOCC1` was tested. Which Kd did it give?
A: Its Kd is > 4 mM (inactive).

Q: Which Kd does the source give for `CC(C)=CC(=O)Nc1ccccc1Br` here?
A: The Kd was > 4 mM (inactive).

Q: For `COCC(=O)Nc1cc2c3c(c1)CCN3C(=O)CC2`, which Kd is on record?
A: Its Kd is > 4 mM (inactive).

Q: For `CCc1c(C)[nH]c(=S)c(C(N)=O)c1C`, which Kd is on record?
A: Its Kd is > 4 mM (inactive).

Q: How did the Kd turn out when `Cc1cc(C(=O)NC(C)c2ccncc2)no1` (centres undefined) was run?
A: The Kd was > 4 mM (inactive).

Q: For `COCc1cc(=O)oc2cc(N)ccc12`, which Kd is on record?
A: Its Kd is > 4 mM (inactive).

Q: How did the Kd turn out when `Cc1c(N=CN(C)C)c(=O)n(-c2ccccc2)n1C` was run?
A: The Kd was > 4 mM (inactive).

Q: `CC(C)=CCOc1cc2oc(=O)ccc2cc1O` was tested. Which Kd did it give?
A: Its Kd is > 4 mM (inactive).

Q: Which Kd does the source give for `[O-][n+]1onc2c1CCc1c-2nn(-c2ccccc2)[n+]1[O-]` here?
A: The Kd was > 4 mM (inactive).

Q: For `CC(=O)c1csc(-c2cc(C)on2)n1`, which Kd is on record?
A: The Kd was > 4 mM (inactive).

Q: With `S=c1[nH]ncn1-c1ccccc1` as the molecule, how does the Kd read?
A: Its Kd is > 4 mM (inactive).

Q: With `COc1ncnc(N)c1[N+](=O)[O-]` as the molecule, how does the Kd read?
A: The Kd was > 4 mM (inactive).

Q: How did the Kd turn out when `CCOC(=O)c1ccc(F)c(F)c1` was run?
A: Its Kd is > 4 mM (inactive).

Q: `Nc1nsc(-c2ccccc2)n1` was tested. Which Kd did it give?
A: Its Kd is > 4 mM (inactive).

Q: For `NC1=NC(=O)/C(=C/c2cccs2)S1`, which Kd is on record?
A: The Kd was > 4 mM (inactive).

Q: Which Kd does the source give for `Cn1nc(-c2ccccc2)cc1N` here?
A: The Kd was > 4 mM (inactive).

Q: `CC(=O)Oc1cccc2ccc(=O)[nH]c12` was tested. Which Kd did it give?
A: Its Kd is > 4 mM (inactive).

Q: With `Cc1cc(=O)oc2c1c(C)nn2CN1CCN(C)CC1` as the molecule, how does the Kd read?
A: The Kd was > 4 mM (inactive).

Q: For `Cn1cnnc1SCCCNC(=O)Nc1ncccn1`, which Kd is on record?
A: The Kd was > 4 mM (inactive).

Q: Which Kd does the source give for `O=C(NC(=S)NCCO)c1ccccc1` here?
A: Its Kd is > 4 mM (inactive).

Q: Which Kd does the source give for `CC(=O)Nc1cccc(N(C)S(C)(=O)=O)c1` here?
A: Its Kd is > 4 mM (inactive).

Q: Which Kd does the source give for `Cc1cccc(OCc2nnc(N)s2)c1` here?
A: The Kd was > 4 mM (inactive).

Q: For `O=C1NC(=O)C2C3C=CC(O3)C12` (centres undefined), which Kd is on record?
A: The Kd was > 4 mM (inactive).

Q: For `Cc1ccc(CCNc2ccccc2)c[n+]1[O-]`, which Kd is on record?
A: Its Kd is > 4 mM (inactive).

Q: `NC(=O)CC1NC(=O)c2ccccc21` (centres undefined) was tested. Which Kd did it give?
A: The Kd was > 4 mM (inactive).
